# Results as given in patent US5998376A, “Substance P treatment for immunostimulation” (priority 1998, dated 1999).
# Columns and labels:
# [1] = test system: immune system organs (spleen, lymph nodes and thymus); assay: Organ Weight and Total Cell Recovery, JP-8 exposed mice; type: in vivo, C57B16 mice; design: Spleen Weight / Thymus Weight: unit not given here
# Description: (§1) At 24 hours after the last exposure, the animals were sacrificed and the effects of exposure on the immune system examined. Immune organs (spleen, thymus, blood, lymph nodes and bone marrow) were recovered and analyzed for effects on organ weight, total cell numbers, immune cell populations (by differentials), and lymphocyte subpopulations (by flow cytometry). Assays were also performed to examine the effects of exposure on immune function. […] Similar effects on immune cell subpopulations were also observed in lymph nodes. In the thymus it appeared that the immature CD4^+ CD8^+ cells were differentially lost due to exposure. […] However, these effects are prevented or ameliorated by treatment of the animals with Substance P.
# Organ Weight and Total Cell Recovery: For each of the immune system organs (spleen, lymph nodes and thymus) the wet weight is determined after removal using a microbalance. After processing of the organs into single cell suspensions the cell numbers and viabilities are determined using trypan blue staining. Histochemical differentials are performed at this time. Cell numbers and viabilities are again determined after centrifugation of the cell suspensions through density gradients to obtain mononuclear cells.
# [2] = test system: lymphocyte subpopulations; assay: Flow cytometric analyses (FACS) of immune organs, JP-8 exposed mice; type: in vivo, C57B16 mice
# Description: as §1
# Flow cytometric analyses (FACS): One- and two-color FACS analyses are performed using a Becton-Dickinson FACStar Plus flow cytometer. Cells are stained with the indicated monoclonal antibodies according to standard procedures (Harris et al., id). Cells alone and cells reacted with conjugated isotype control, irrelevant mAbs are used as controls. Data is presented as the percentage of cells staining positive for each individual mAb.
# [3] = JP-8 dose 1000 + SP or antagonist aerosol
# [4] = JP-8 dose 0 + SP or antagonist aerosol
# [5] = JP-8 dose 0 + antagonist aerosol
smiles,measurement,setting,value
"COc1ccccc1CC(=N)N1C[C@@H]2C(=O)CCC(c3ccccc3)(c3ccccc3)[C@@H]2C1 [RP, MRP-67,580, reference compound]",BM Cell Number,[1]; [3],27
same,LN Cell Number,[1]; [3],6.8
same,Spleen Cell Number,[1]; [3],37
same,Spleen Weight,[1]; [3],0.10
same,Thymus Cell Number,[1]; [3],72
same,Thymus Weight,[1]; [3],0.03
same,"BM CD3, cells staining positive",[2]; [3],12%
same,"BM CD4, cells staining positive",[2]; [3],6%
same,"BM CD8, cells staining positive",[2]; [3],5%
same,"BM CD45, cells staining positive",[2]; [3],42%
same,"BM MAC1, cells staining positive",[2]; [3],10%
same,"LN CD3, cells staining positive",[2]; [3],96%
same,"LN CD4, cells staining positive",[2]; [3],41%
same,"LN CD8, cells staining positive",[2]; [3],29%
same,"LN CD45, cells staining positive",[2]; [3],18%
same,"LN MAC1, cells staining positive",[2]; [3],1%
same,"PBL CD3, cells staining positive",[2]; [3],71%
same,"PBL CD4, cells staining positive",[2]; [3],18%
same,"PBL CD8, cells staining positive",[2]; [3],10%
same,"PBL CD45, cells staining positive",[2]; [3],38%
same,"PBL MAC1, cells staining positive",[2]; [3],9%
same,"Spleen CD3, cells staining positive",[2]; [3],47%
same,"Spleen CD4, cells staining positive",[2]; [3],16%
same,"Spleen CD8, cells staining positive",[2]; [3],5%
same,"Spleen CD45, cells staining positive",[2]; [3],39%
same,"Spleen MAC1, cells staining positive",[2]; [3],1%
same,"Thymus CD3, cells staining positive",[2]; [3],16%
same,"Thymus DN, cells staining positive",[2]; [3],10%
same,"Thymus DP, cells staining positive",[2]; [3],70%
same,"Thymus SP4, cells staining positive",[2]; [3],12%
same,"Thymus SP8, cells staining positive",[2]; [3],8%
"COc1ccccc1CN[C@H]1C2CCN(CC2)[C@H]1C(c1ccccc1)c1ccccc1 [CP, CP-96,345, reference compound]",BM Cell Number,[1]; [4],29
same,LN Cell Number,[1]; [4],9.8
same,Spleen Cell Number,[1]; [4],16
same,Spleen Weight,[1]; [4],0.12
same,Thymus Cell Number,[1]; [4],50
same,Thymus Weight,[1]; [4],0.12
same,BM Cell Number,[1]; [3],22
same,LN Cell Number,[1]; [3],7.1
same,Spleen Cell Number,[1]; [3],7
same,Spleen Weight,[1]; [3],0.16
same,Thymus Cell Number,[1]; [3],75
same,Thymus Weight,[1]; [3],0.12
same,"BM CD3, cells staining positive",[2]; [4],16%
same,"BM CD4, cells staining positive",[2]; [4],9%
same,"BM CD8, cells staining positive",[2]; [4],7%
same,"BM CD45, cells staining positive",[2]; [4],27%
same,"BM MAC1, cells staining positive",[2]; [4],33%
same,"Spleen CD3, cells staining positive",[2]; [4],32%
same,"Spleen CD4, cells staining positive",[2]; [4],21%
same,"Spleen CD8, cells staining positive",[2]; [4],7%
same,"Spleen CD45, cells staining positive",[2]; [4],24%
same,"Spleen MAC1, cells staining positive",[2]; [4],3%
same,"Thymus CD3, cells staining positive",[2]; [4],18%
same,"Thymus DN, cells staining positive",[2]; [4],13%
same,"Thymus DP, cells staining positive",[2]; [4],75%
same,"Thymus SP4, cells staining positive",[2]; [4],12%
same,"Thymus SP8, cells staining positive",[2]; [4],3%
same,"LN CD3, cells staining positive",[2]; [5],49%
same,"LN CD4, cells staining positive",[2]; [5],25%
same,"LN CD8, cells staining positive",[2]; [5],12%
same,"LN CD45, cells staining positive",[2]; [5],15%
same,"LN MAC1, cells staining positive",[2]; [5],1%
same,"PBL CD3, cells staining positive",[2]; [5],72%
same,"PBL CD4, cells staining positive",[2]; [5],29%
same,"PBL CD8, cells staining positive",[2]; [5],13%
same,"PBL CD45, cells staining positive",[2]; [5],12%
same,"PBL MAC1, cells staining positive",[2]; [5],7%
same,"BM CD3, cells staining positive",[2]; [3],14%
same,"BM CD4, cells staining positive",[2]; [3],7%
same,"BM CD8, cells staining positive",[2]; [3],3%
same,"BM CD45, cells staining positive",[2]; [3],41%
same,"BM MAC1, cells staining positive",[2]; [3],26%
same,"LN CD3, cells staining positive",[2]; [3],95%
same,"LN CD4, cells staining positive",[2]; [3],35%
same,"LN CD8, cells staining positive",[2]; [3],23%
same,"PBL CD3, cells staining positive",[2]; [3],50%
same,"PBL CD4, cells staining positive",[2]; [3],20%
same,"PBL CD8, cells staining positive",[2]; [3],15%
same,"PBL CD45, cells staining positive",[2]; [3],27%
same,"PBL MAC1, cells staining positive",[2]; [3],6%
same,"Spleen CD3, cells staining positive",[2]; [3],34%
same,"Spleen CD4, cells staining positive",[2]; [3],16%
same,"Spleen CD8, cells staining positive",[2]; [3],9%
same,"Spleen CD45, cells staining positive",[2]; [3],26%
same,"Spleen MAC1, cells staining positive",[2]; [3],11%
same,"Thymus CD3, cells staining positive",[2]; [3],17%
same,"Thymus DN, cells staining positive",[2]; [3],12%
same,"Thymus DP, cells staining positive",[2]; [3],65%
same,"Thymus SP4, cells staining positive",[2]; [3],17%
same,"Thymus SP8, cells staining positive",[2]; [3],7%
